Measurements as given in patent US8192962B2, “Processes for detecting toxic substances” (Daikin Industries, Ltd., priority 2001, dated 2012).

Tested on: Metabolism protein genes
Test: DNA chip mRNA expression in yeast, metabolism protein genes (Table 7)
Type: cell-based, Saccharomyces cerevisiae S288C
Procedure, shortened: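 Untreated cultures served as reference for log-phase S288C yeast given a growth-inhibiting, non-lethal toxicant dose for 2 h at 25° C. in YPD. Gene expression was measured on a whole-genome DNA chip from Cy3/Cy5-labeled cDNA.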

## CN(C)C(=S)SSC(=S)N(C)C [(10), Tetramethylthiuram disulfide]
Yeast gene YAL012W
  The level of expressed mRNA in the presence of chemical substance/The level of expressed mRNA in the absence of chemical substance: 3.9
Yeast gene YAL038W
  The level of expressed mRNA in the presence of chemical substance/The level of expressed mRNA in the absence of chemical substance: 1.1
Yeast gene YAL044C
  The level of expressed mRNA in the presence of chemical substance/The level of expressed mRNA in the absence of chemical substance: 0.6
Yeast gene YAL054C
  The level of expressed mRNA in the presence of chemical substance/The level of expressed mRNA in the absence of chemical substance: 4.1
Yeast gene YAR071W
  The level of expressed mRNA in the presence of chemical substance/The level of expressed mRNA in the absence of chemical substance: 0.3
Yeast gene YBL001C
  The level of expressed mRNA in the presence of chemical substance/The level of expressed mRNA in the absence of chemical substance: 0.9
Yeast gene YBR003W
  level of expressed mRNA in the presence/in the absence of chemical substance: 1.3
Yeast gene YBR011C
  level of expressed mRNA in the presence/in the absence of chemical substance: 1.0
Yeast gene YBR014C
  The level of expressed mRNA in the presence of chemical substance/The level of expressed mRNA in the absence of chemical substance: 0.8
Yeast gene YBR020W
  level of expressed mRNA in the presence/in the absence of chemical substance: 1.1
Yeast gene YBR023C
  The level of expressed mRNA in the presence of chemical substance/The level of expressed mRNA in the absence of chemical substance: 0.4
Yeast gene YBR029C
  The level of expressed mRNA in the presence of chemical substance/The level of expressed mRNA in the absence of chemical substance: 1.1
Yeast gene YBR035C
  The level of expressed mRNA in the presence of chemical substance/The level of expressed mRNA in the absence of chemical substance: 1.5
Yeast gene YBR068C
  The level of expressed mRNA in the presence of chemical substance/The level of expressed mRNA in the absence of chemical substance: 2.5
Yeast gene YBR111C
  The level of expressed mRNA in the presence of chemical substance/The level of expressed mRNA in the absence of chemical substance: 1.9
Yeast gene YBR183W
  The level of expressed mRNA in the presence of chemical substance/The level of expressed mRNA in the absence of chemical substance: 2.0
Yeast gene YBR222C
  The level of expressed mRNA in the presence of chemical substance/The level of expressed mRNA in the absence of chemical substance: 1.0
Yeast gene YBR256C
  The level of expressed mRNA in the presence of chemical substance/The level of expressed mRNA in the absence of chemical substance: 6.8
Yeast gene YBR296C
  The level of expressed mRNA in the presence of chemical substance/The level of expressed mRNA in the absence of chemical substance: 1.8
Yeast gene YCL009C
  The level of expressed mRNA in the presence of chemical substance/The level of expressed mRNA in the absence of chemical substance: 1.6
Yeast gene YCL064C
  The level of expressed mRNA in the presence of chemical substance/The level of expressed mRNA in the absence of chemical substance: 5.2
Yeast gene YCR010C
  level of expressed mRNA in the presence/in the absence of chemical substance: 4.7
Yeast gene YCR034W
  level of expressed mRNA in the presence/in the absence of chemical substance: 0.2
Yeast gene YCR048W
  The level of expressed mRNA in the presence of chemical substance/The level of expressed mRNA in the absence of chemical substance: 0.5
Yeast gene YCR098C
  The level of expressed mRNA in the presence of chemical substance/The level of expressed mRNA in the absence of chemical substance: 2.4
Yeast gene YDR019C
  The level of expressed mRNA in the presence of chemical substance/The level of expressed mRNA in the absence of chemical substance: 0.7
Yeast gene YDR050C
  level of expressed mRNA in the presence/in the absence of chemical substance: 1.3
Yeast gene YDR073W
  level of expressed mRNA in the presence/in the absence of chemical substance: 1.2
Yeast gene YDR123C
  level of expressed mRNA in the presence/in the absence of chemical substance: 0.6
Yeast gene YDR178W
  level of expressed mRNA in the presence/in the absence of chemical substance: 0.8
Yeast gene YDR277C
  level of expressed mRNA in the presence/in the absence of chemical substance: 0.9
Yeast gene YDR284C
  level of expressed mRNA in the presence/in the absence of chemical substance: 1.0
Yeast gene YDR345C
  level of expressed mRNA in the presence/in the absence of chemical substance: 1.1
Yeast gene YDR380W
  The level of expressed mRNA in the presence of chemical substance/The level of expressed mRNA in the absence of chemical substance: 0.3
Yeast gene YDR400W
  level of expressed mRNA in the presence/in the absence of chemical substance: 1.4
Yeast gene YDR408C
  level of expressed mRNA in the presence/in the absence of chemical substance: 0.5
Yeast gene YDR483W
  level of expressed mRNA in the presence/in the absence of chemical substance: 1.1
Yeast gene YDR497C
  The level of expressed mRNA in the presence of chemical substance/The level of expressed mRNA in the absence of chemical substance: 0.8
Yeast gene YDR502C
  The level of expressed mRNA in the presence of chemical substance/The level of expressed mRNA in the absence of chemical substance: 0.9
Yeast gene YDR516C
  The level of expressed mRNA in the presence of chemical substance/The level of expressed mRNA in the absence of chemical substance: 5.2
Yeast gene YEL063C
  level of expressed mRNA in the presence/in the absence of chemical substance: 1.7
Yeast gene YER015W
  level of expressed mRNA in the presence/in the absence of chemical substance: 0.9
Yeast gene YER026C
  The level of expressed mRNA in the presence of chemical substance/The level of expressed mRNA in the absence of chemical substance: 1.5
Yeast gene YER053C
  The level of expressed mRNA in the presence of chemical substance/The level of expressed mRNA in the absence of chemical substance: 3.9
Yeast gene YER069W
  The level of expressed mRNA in the presence of chemical substance/The level of expressed mRNA in the absence of chemical substance: 10.4
Yeast gene YER081W
  level of expressed mRNA in the presence/in the absence of chemical substance: 1.1
Yeast gene YER096W
  The level of expressed mRNA in the presence of chemical substance/The level of expressed mRNA in the absence of chemical substance: 3.5
Yeast gene YER120W
  level of expressed mRNA in the presence/in the absence of chemical substance: 0.9
Yeast gene YER178W
  The level of expressed mRNA in the presence of chemical substance/The level of expressed mRNA in the absence of chemical substance: 1.3
Yeast gene YFL011W
  level of expressed mRNA in the presence/in the absence of chemical substance: 1.6
Yeast gene YFL014W
  The level of expressed mRNA in the presence of chemical substance/The level of expressed mRNA in the absence of chemical substance: 5.8
Yeast gene YFL030W
  The level of expressed mRNA in the presence of chemical substance/The level of expressed mRNA in the absence of chemical substance: 4.9
Yeast gene YFL031W
  The level of expressed mRNA in the presence of chemical substance/The level of expressed mRNA in the absence of chemical substance: 0.7
Yeast gene YFL056C
  The level of expressed mRNA in the presence of chemical substance/The level of expressed mRNA in the absence of chemical substance: 31.3
Yeast gene YFL057C
  The level of expressed mRNA in the presence of chemical substance/The level of expressed mRNA in the absence of chemical substance: 46.1
Yeast gene YFR047C
  The level of expressed mRNA in the presence of chemical substance/The level of expressed mRNA in the absence of chemical substance: 1.5
Yeast gene YGL012W
  level of expressed mRNA in the presence/in the absence of chemical substance: 0.9
Yeast gene YGL022W
  The level of expressed mRNA in the presence of chemical substance/The level of expressed mRNA in the absence of chemical substance: 0.4
Yeast gene YGL115W
  level of expressed mRNA in the presence/in the absence of chemical substance: 1.2
Yeast gene YGL126W
  The level of expressed mRNA in the presence of chemical substance/The level of expressed mRNA in the absence of chemical substance: 0.7
Yeast gene YGL202W
  The level of expressed mRNA in the presence of chemical substance/The level of expressed mRNA in the absence of chemical substance: 1.7
Yeast gene YGL205W
  level of expressed mRNA in the presence/in the absence of chemical substance: 0.6
Yeast gene YGL209W
  The level of expressed mRNA in the presence of chemical substance/The level of expressed mRNA in the absence of chemical substance: 0.4
Yeast gene YGL248W
  The level of expressed mRNA in the presence of chemical substance/The level of expressed mRNA in the absence of chemical substance: 2.9
Yeast gene YGL252C
  The level of expressed mRNA in the presence of chemical substance/The level of expressed mRNA in the absence of chemical substance: 1.7
Yeast gene YGR037C
  The level of expressed mRNA in the presence of chemical substance/The level of expressed mRNA in the absence of chemical substance: 1.4
Yeast gene YGR055W
  The level of expressed mRNA in the presence of chemical substance/The level of expressed mRNA in the absence of chemical substance: 2.4
Yeast gene YGR096W
  level of expressed mRNA in the presence/in the absence of chemical substance: 0.8
Yeast gene YGR191W
  level of expressed mRNA in the presence/in the absence of chemical substance: 0.7
Yeast gene YGR194C
  The level of expressed mRNA in the presence of chemical substance/The level of expressed mRNA in the absence of chemical substance: 2.1
Yeast gene YGR204W
  level of expressed mRNA in the presence/in the absence of chemical substance: 2.3
Yeast gene YGR256W
  The level of expressed mRNA in the presence of chemical substance/The level of expressed mRNA in the absence of chemical substance: 2.5
Yeast gene YGR282C
  The level of expressed mRNA in the presence of chemical substance/The level of expressed mRNA in the absence of chemical substance: 0.8
Yeast gene YGR288W
  level of expressed mRNA in the presence/in the absence of chemical substance: 2.6
Yeast gene YHR025W
  level of expressed mRNA in the presence/in the absence of chemical substance: 0.4
Yeast gene YHR111W
  The level of expressed mRNA in the presence of chemical substance/The level of expressed mRNA in the absence of chemical substance: 4.2
Yeast gene YHR123W
  level of expressed mRNA in the presence/in the absence of chemical substance: 1.1
Yeast gene YHR137W
  The level of expressed mRNA in the presence of chemical substance/The level of expressed mRNA in the absence of chemical substance: 0.9
Yeast gene YHR174W
  The level of expressed mRNA in the presence of chemical substance/The level of expressed mRNA in the absence of chemical substance: 1.5
Yeast gene YHR176W
  The level of expressed mRNA in the presence of chemical substance/The level of expressed mRNA in the absence of chemical substance: 6.4
Yeast gene YHR210C
  level of expressed mRNA in the presence/in the absence of chemical substance: 0.9
Yeast gene YIL006W
  level of expressed mRNA in the presence/in the absence of chemical substance: 1.1
Yeast gene YIL045W
  The level of expressed mRNA in the presence of chemical substance/The level of expressed mRNA in the absence of chemical substance: 3.2
Yeast gene YIL107C
  The level of expressed mRNA in the presence of chemical substance/The level of expressed mRNA in the absence of chemical substance: 3.5
Yeast gene YIL154C
  The level of expressed mRNA in the presence of chemical substance/The level of expressed mRNA in the absence of chemical substance: 1.0
Yeast gene YIL155C
  The level of expressed mRNA in the presence of chemical substance/The level of expressed mRNA in the absence of chemical substance: 2.9
Yeast gene YIL167W
  The level of expressed mRNA in the presence of chemical substance/The level of expressed mRNA in the absence of chemical substance: 12.7
Yeast gene YIL172C
  The level of expressed mRNA in the presence of chemical substance/The level of expressed mRNA in the absence of chemical substance: 7.1
Yeast gene YIR034C
  The level of expressed mRNA in the presence of chemical substance/The level of expressed mRNA in the absence of chemical substance: 3.5
Yeast gene YIR036C
  The level of expressed mRNA in the presence of chemical substance/The level of expressed mRNA in the absence of chemical substance: 1.9
Yeast gene YJL031C
  The level of expressed mRNA in the presence of chemical substance/The level of expressed mRNA in the absence of chemical substance: 3.6
Yeast gene YJL068C
  The level of expressed mRNA in the presence of chemical substance/The level of expressed mRNA in the absence of chemical substance: 3.1
Yeast gene YJL088W
  The level of expressed mRNA in the presence of chemical substance/The level of expressed mRNA in the absence of chemical substance: 4.1
Yeast gene YJL099W
  The level of expressed mRNA in the presence of chemical substance/The level of expressed mRNA in the absence of chemical substance: 3.1
Yeast gene YJL121C
  level of expressed mRNA in the presence/in the absence of chemical substance: 0.4
Yeast gene YJL167W
  level of expressed mRNA in the presence/in the absence of chemical substance: 0.9
Yeast gene YJL172W
  The level of expressed mRNA in the presence of chemical substance/The level of expressed mRNA in the absence of chemical substance: 1.9
Yeast gene YJL219W
  The level of expressed mRNA in the presence of chemical substance/The level of expressed mRNA in the absence of chemical substance: 2.3
Yeast gene YJR077C
  level of expressed mRNA in the presence/in the absence of chemical substance: 0.7
Yeast gene YJR137C
  The level of expressed mRNA in the presence of chemical substance/The level of expressed mRNA in the absence of chemical substance: 4.8
